Measurements: ChEMBL document CHEMBL5360534, “Synthetic α-glucosidase inhibitors as promising anti-diabetic agents: Recent developments and future challenges” (Eur J Med Chem, 2023)

What was measured:
Alpha-glucosidase [1] = biological target: T1, Alpha-glucosidase (Saccharomyces cerevisiae S288c, UniProt P53341+P38158+P07265); assay: Inhibition of Saccharomyces cerevisiae alpha-glucosidase by absorbance based microplate reader analysis; format: protein assay
[2] = Inhibition of alpha-glucosidase (unknown origin) using p-nitrophenyl-alpha-D-glucopyranoside as substrate preincubated for 10 mins followed by substrate addition and measured after 20 mins by spectrophotometric analysis; parameters: species or system Homo sapiens
[3] = Inhibition of Saccharomyces cerevisiae alpha-glucosidase type I using p-nitrophenyl-alpha-D-glucopyranoside as substrate preincubated for 10 mins followed by substrate addition and measured after 20 mins by spectrophotometric analysis
[4] = Inhibition of alpha-glucosidase (unknown origin) using p-nitrophenyl glucopyranoside as substrate preincubated for 10 mins followed by substrate addition and measured after 20 mins by spectrophotometric analysis; parameters: species or system Homo sapiens
Alpha-glucosidase [5] = biological target: T1, Alpha-glucosidase; assay: Inhibition of Saccharomyces cerevisiae alpha-glucosidase using p-nitrophenyl glucopyranoside as substrate preincubated for 10 mins followed by substrate addition and measured after 20 mins by spectrophotometric analysis; format: protein assay
Alpha-glucosidase [6] = biological target: T1, Alpha-glucosidase; assay: Inhibition of Saccharomyces cerevisiae alpha-glucosidase using pNPG as substrate by spectrophotometric analysis; format: protein assay
[7] = Inhibition of alpha-glucosidase (unknown origin) using p-nitrophenylglucopyranoside as substrate preincubated for 10 mins followed by substrate addition and measured after 30 mins by absorbance based microplate reader analysis; parameters: species or system Homo sapiens
Alpha-glucosidase [8] = biological target: T1, Alpha-glucosidase; assay: Inhibition of Saccharomyces cerevisiae alpha-glucosidase using p-nitrophenyl-alpha-D-glucopyranoside as substrate preincubated for 10 mins followed by substrate addition and measured after 30 mins by absorbance based microplate reader analysis; format: protein assay
Alpha-glucosidase [9] = biological target: T1, Alpha-glucosidase; assay: Inhibition of Saccharomyces cerevisiae alpha-glucosidase using p-nitrophenyl-alpha-D-glucopyranoside as substrate preincubated for 5 mins followed by substrate addition and measured after 5 mins by spectrophotometric analysis; format: protein assay
[10] = Inhibition of alpha-glucosidase (unknown origin) using pNPG as substrate preincubated for 15 mins followed by substrate addition and measured after 15 mins by spectrophotometric analysis; parameters: species or system Homo sapiens
[11] = Inhibition of alpha-glucosidase (unknown origin) using pNPG as substrate assessed as inhibition constant by spectrophotometric analysis; parameters: species or system Homo sapiens
[12] = Inhibition of alpha-glucosidase (unknown origin) using pNPG as substrate by spectrophotometric analysis; parameters: species or system Homo sapiens
Homo sapiens = species: Homo sapiens; assay: Inhibition of alpha-glucosidase (unknown origin) using p-nitrophenylglucopyranoside as substrate at 100 microg/ml preincubated for 10 mins followed by substrate addition and measured by absorbance based analysis relative to control; conditions: dose 100.0 µg/ml
[13] = Inhibition of alpha-glucosidase (unknown origin) using p-nitrophenylglucopyranoside as substrate preincubated for 10 mins followed by substrate addition and measured by absorbance based analysis; parameters: species or system Homo sapiens
[14] = Inhibition of alpha-glucosidase (unknown origin) using p-nitrophenyl-alpha-D-glucopyranoside as substrate preincubated for 15 mins followed by substrate addition and measured after 30 mins by absorbance based analysis; parameters: species or system Homo sapiens
[15] = Competitive inhibition of alpha-glucosidase (unknown origin) using p-nitrophenyl-alpha-D-glucopyranoside as substrate assessed as inhibition constant; parameters: species or system Homo sapiens
[16] = Inhibition of alpha-glucosidase (unknown origin) using p-nitrophenyl-alpha-D-glucopyranoside as substrate; parameters: species or system Homo sapiens
Alpha-glucosidase [17] = biological target: T1, Alpha-glucosidase; assay: Competitive inhibition of Saccharomyces cerevisiae alpha-glucosidase using pNPG as substrate assessed as inhibition constant preincubated for 10 mins followed by substrate addition and measured after 20 mins by spectrophotometric analysis; format: protein assay
[18] = Inhibition of alpha-glucosidase (unknown origin) using p-nitro phenyl glucopyranoside as substrate preincubated for 15 mins followed by substrate addition and measured after 30 mins by absorbance based analysis; parameters: species or system Homo sapiens
Alpha-glucosidase [19] = biological target: T1, Alpha-glucosidase; assay: Inhibition of Saccharomyces cerevisiae alpha-glucosidase using p-nitrophenyl-alpha-D-glucopyranoside as substrate incubated for 30 mins by spectrophotometric analysis; format: protein assay
[20] = Inhibition of alpha-glucosidase (unknown origin) using pNPG as substrate preincubated for 15 mins followed by substrate addition and measured after 30 mins by microplate reader based analysis; parameters: species or system Homo sapiens
Alpha-glucosidase [21] = biological target: T1, Alpha-glucosidase; assay: Inhibition of Saccharomyces cerevisiae alpha-glucosidase using p-nitrophenyl-alpha-D-glucopyranoside as substrate preincubated for 15 mins followed by substrate addition and measured after 20 mins by spectrophotometric analysis; format: protein assay

COc1ccc(/N=C2/NC(=O)/C(=C/c3cn(-c4ccccc4)nc3-c3ccc([N+](=O)[O-])cc3)S2)cc1
IC50 (Alpha-glucosidase [1]): 4.48 µM

CC(=O)c1c(-c2ccccc2)cn(CC(C)C)c1C
IC50 [2]: 0.77 µM

Clc1ccc(-n2c(-c3cn(-c4ccccc4)nc3-c3ccc(Br)cc3)nc(-c3ccccc3)c2-c2ccccc2)cc1
IC50 [3]: 25.2 µM

COc1cc(-c2nc3ccccc3[nH]2)ccc1OCc1cn(CC(=O)Nc2cnc(-c3ccccc3)s2)nn1
IC50 [4]: 6.31 µM

O=c1c2ccccc2nc(SCc2cn(Cc3ccc(Br)cc3)nn2)n1CCc1ccccc1
IC50 (Alpha-glucosidase [5]): 181 µM | IC50 (Alpha-glucosidase [6]): 181 µM

CC(=O)Nc1ccc(-c2[nH]c3ccc(F)cc3c2-c2nc(-c3ccccc3)c(-c3ccccc3)n2-c2ccccc2)cc1
IC50 [7]: 8.37 µM

Cc1ccc(NC(=O)C(C)Sc2nnc(-c3ccc(Cl)cc3)o2)cc1C (stereo not given)
IC50 (Alpha-glucosidase [8]): 52.63 µM

CCCSc1nnc(C(C)c2ccc3cc(OC)ccc3c2)n1-c1ccc(Cl)c(Cl)c1 (stereo not given)
IC50 (Alpha-glucosidase [9]): 1.1 µM

Cc1nn(-c2ccccc2)c(Cl)c1C1Nc2ccccc2C(=O)N1c1ccc(O)cc1 (stereo not given)
IC50 [10]: 2.6 µM

Cc1cc(C)cc(CS(=O)(=O)c2ccc(NC(=O)Nc3cccc(Cl)c3)cc2)c1
Ki [11]: 0.0128 µM | IC50 [12]: 0.00905 µM

Nc1ccccc1-c1nn(CNN2CCOCC2)c(=S)o1
inhibition (Homo sapiens): 85% | IC50 [13]: 53.6 µM

O=C1Nc2cc(Br)ccc2/C1=N/Nc1nc(-c2ccc(Br)cc2)cs1
IC50 [14]: 20.8 µM

COc1ccc2oc(=O)c3c(CC#N)c(-c4ccccc4)[nH]c3c2c1
Ki [15]: 42.6 µM | IC50 [16]: 48.6 µM

CCOC(=O)c1c(SCc2cn(Cc3cccc([N+](=O)[O-])c3)nn2)nnc(-c2ccccc2)c1-c1ccccc1
IC50 (Alpha-glucosidase [5]): 85.6 µM | Ki (Alpha-glucosidase [17]): 82 µM

CCOC(=O)CN1C(=O)S/C(=C/c2ccc(-n3ccc4c(Br)ccnc43)cc2)C1=O
IC50 [18]: 0.55 µM

CCCSc1nnc(C(C)c2ccc3cc(OC)ccc3c2)n1-c1ccc(F)cc1 (stereo not given)
IC50 (Alpha-glucosidase [9]): 1 µM

O=C(CCCSc1nc2ccccc2s1)Nc1cccc2ccccc12
IC50 (Alpha-glucosidase [19]): 11 µM

O=C1Nc2ccc(Cl)cc2/C1=C\c1ccc(-c2nnc(-c3cc(O)cc(O)c3)o2)cc1
IC50 [20]: 1.25 µM

COc1ccc(/N=C2/NC(=O)/C(=C/c3cn(-c4ccccc4)nc3-c3ccc(OC)cc3)S2)cc1
IC50 (Alpha-glucosidase [1]): 9.9 µM

CN1CCN(c2ccc3[nH]c(-c4ccc(O)cc4)nc3c2)CC1
IC50 (Alpha-glucosidase [21]): 2.25 µM

CCn1cc(C(=O)CC(c2ccc3ccccc3c2)C2C(=O)N(C)C(=O)N(C)C2=O)c2ccccc21 (stereo not given)
IC50 (Alpha-glucosidase [6]): 13.02 µM

COc1cc2oc(=O)ccc2cc1-c1c(O)cc(O)c2c1O/C(=C\c1ccccc1)C2=O
IC50 (Alpha-glucosidase [19]): 3.55 µM

Oc1ccc(-c2nc3cc(N4CCOCC4)ccc3[nH]2)cc1
IC50 (Alpha-glucosidase [21]): 3.4 µM

NS(=O)(=O)c1ccc(Cc2nc(Cc3ccc(S(N)(=O)=O)cc3)nc(-c3cccc([N+](=O)[O-])c3)n2)cc1
Ki [11]: 41.7 µM | IC50 [12]: 41.7 µM
